Measured values from US10052306B2 (LUC THERAPEUTICS, INC., priority 2013, dated 2018).
Values joined by “and” are separate entries in the source; they are usually repeats but may differ in a detail not shown here. Equal entries are not always repeated.

Legend:
[1] = target: NR1/NR2B (Homo sapiens (Human), UniProt Q13224); assay: Cell assay: FDSS Ca2+ influx inhibition in HEK293 cells expressing NR1/NR2B; settings: read-out: NR2B NAM IC50; HEK293 cells expressing NR1/NR2B, Ca2+ influx;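 note: Fluo-8 Ca2+ signal read on Hamamatsu FDSS 6000 after glutamate, glycine and Ca2+ challenge following 10 min compound preincubation, end/baseline fluorescence ratio compared with MK801 control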
Protocol: (§1) Cell Culture and plating: HEK293 cells expressing NR1/NR2B (Chantest, Cleveland, Ohio) were grown to 70-80% confluency as an adherent monolayer in standard tissue culture flasks at 37° C., 5% CO2 per supplier's instructions. NR2B expression was induced by incubation with 0.3-0.4 μg/ml tetracycline in the presence of 4 mM ARL-15896 for 18-24 hours under the same growth conditions, then transferred to 30° C. for another 3-5 hours.
(§2) After induction, cell culture medium was removed and cells were rinsed once with Ca^2+ and Mg^2+-free Dulbecco's phosphate buffered saline. Cells were then removed from the flask using TrypLE™ Express (Life Technologies) according to the manufacturer's instructions and collected to 50 ml centrifuge tubes. Following two washes in Ca^2+/Mg^2+-free HBSS with 20 mM HEPES (HHnoCa), cells were counted and viability assessed using trypan blue. To load cells with Ca^2+-sensitive dye, they were resuspended in fluo-8 plus Component B (AAT Bioquest Products) diluted in HHnoCa and incubated 15 minutes at 37° C., followed by 30 minutes at room temp (in dark). Cells were then washed and resuspended in HHnoCa to remove extracellular dye and plated in 384-well plates (Falcon, uncoated) at 20,000-30,000 cells/well in a final volume of 25 μl/well.
(§3) FDSS Assay: To each well of the plate, 10 μL test compound, control (MK801) or HHnoCa buffer was added to a final concentration of 10 μM with a final concentration of DMSO of 0.1%. Following 10 minutes pre-incubation in the dark, plates are loaded onto the Hamamatsu FDSS 6000. After collecting baseline fluorescence images, 3 μM glutamate, 3 glycine, and 1 mM Ca^2+ in HHnoCa buffer is added to each well, and Ca^2+ is recorded for 3 minutes. Data were processed by computing ratio of fluorescence at the end of data collection to baseline fluorescence to assess degree of Ca′ influx inhibition relative to that observed in MK801.

[2] = target: NR1/NR2B (Homo sapiens (Human), UniProt Q05586+Q13224); assay: as above; settings: Binned Activity, HEK293 cells expressing NR1/NR2B, Ca2+ influx; binned NR2B NAM IC50
Chain of NR1/NR2B (Homo sapiens (Human), UniProt Q05586+Q13224) (Q13224 27-1484, other chains not shown): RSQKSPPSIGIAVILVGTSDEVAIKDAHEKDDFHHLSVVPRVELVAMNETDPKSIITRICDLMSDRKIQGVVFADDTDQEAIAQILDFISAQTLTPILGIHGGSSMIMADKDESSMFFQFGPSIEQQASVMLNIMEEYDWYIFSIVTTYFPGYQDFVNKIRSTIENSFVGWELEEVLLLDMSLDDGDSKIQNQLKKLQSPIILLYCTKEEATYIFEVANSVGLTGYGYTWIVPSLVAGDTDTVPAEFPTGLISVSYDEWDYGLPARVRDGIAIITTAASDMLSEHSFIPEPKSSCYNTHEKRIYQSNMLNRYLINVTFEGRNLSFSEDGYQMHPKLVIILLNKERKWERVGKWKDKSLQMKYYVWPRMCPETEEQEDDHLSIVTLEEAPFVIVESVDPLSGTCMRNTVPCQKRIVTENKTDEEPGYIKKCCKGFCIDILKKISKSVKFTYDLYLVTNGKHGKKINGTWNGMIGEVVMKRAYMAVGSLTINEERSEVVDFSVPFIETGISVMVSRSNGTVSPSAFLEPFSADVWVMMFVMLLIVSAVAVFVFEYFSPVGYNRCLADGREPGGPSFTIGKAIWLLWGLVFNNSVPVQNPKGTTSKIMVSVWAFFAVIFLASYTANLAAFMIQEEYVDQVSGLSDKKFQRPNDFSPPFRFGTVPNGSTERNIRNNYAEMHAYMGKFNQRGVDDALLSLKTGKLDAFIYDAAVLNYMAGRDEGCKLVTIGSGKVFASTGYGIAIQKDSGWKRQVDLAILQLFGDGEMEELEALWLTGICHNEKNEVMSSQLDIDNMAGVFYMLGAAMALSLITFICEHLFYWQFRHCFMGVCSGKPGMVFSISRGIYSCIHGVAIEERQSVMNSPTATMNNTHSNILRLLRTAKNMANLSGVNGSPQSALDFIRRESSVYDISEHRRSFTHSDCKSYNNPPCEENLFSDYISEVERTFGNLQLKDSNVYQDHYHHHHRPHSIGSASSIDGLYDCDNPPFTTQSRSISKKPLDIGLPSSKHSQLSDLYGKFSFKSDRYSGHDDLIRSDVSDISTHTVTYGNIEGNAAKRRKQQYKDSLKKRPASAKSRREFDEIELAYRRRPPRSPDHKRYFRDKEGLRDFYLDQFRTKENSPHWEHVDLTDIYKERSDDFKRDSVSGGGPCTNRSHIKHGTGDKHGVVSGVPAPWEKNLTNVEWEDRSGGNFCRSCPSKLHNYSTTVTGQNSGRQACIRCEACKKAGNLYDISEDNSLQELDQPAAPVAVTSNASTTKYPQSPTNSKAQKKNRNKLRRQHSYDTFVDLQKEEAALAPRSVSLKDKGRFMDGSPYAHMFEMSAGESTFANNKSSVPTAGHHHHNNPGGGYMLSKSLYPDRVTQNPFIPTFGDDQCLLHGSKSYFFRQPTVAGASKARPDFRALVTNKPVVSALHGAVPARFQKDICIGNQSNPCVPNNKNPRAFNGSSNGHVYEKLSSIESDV
Protocol: as §1, §2, §3

Chain of NR1/NR2B (Homo sapiens (Human), UniProt Q13224) (Q13224 27-1484, other chains not shown): as above

Row | SMILES | IC50 [1] | IC50 [2]
1 | Oc1ccc([C@H](O)CN2C[C@@H]3C[C@@](O)(Cc4ccc(F)cc4)C[C@@H]3C2)nc1 [Example 256, (3aR,5R,6aS)-5-(4-fluorobenzyl)-2-((R)-2-hydroxy-2-(5-hydroxypyridin-2-yl)ethyl)octahydrocyclo-penta[c]pyrrol-5-ol] | 0.0317 µM | < 0.1 µM
2 | O=C(Nc1cccnc1)N1C[C@@H]2C[C@@](O)(c3ccccc3)C[C@@H]2C1 [Example 44] | 10 µM | > 10 µM
3 | Oc1ccc([C@@H](O)CN2C[C@@H]3C[C@@](O)(Cc4ccccc4)C[C@@H]3C2)cc1F [Example 180, (3aR,5R,6aS)-5-benzyl-2-((R)-2-(3-fluoro-4-hydroxyphenyl)-2-hydroxyethyl)octahydro-cyclopenta[c]pyrrol-5-ol] | 0.0223 µM and 0.0228 µM | < 0.1 µM
4 | O=C(CN1C[C@@H]2C[C@@](O)(Cc3c(F)cccc3F)C[C@@H]2C1)c1ccc(O)cn1 [Example 237, 2-[(3aR,5R,6aS)-5-[(2,6-difluorophenyl)methyl]-5-hydroxy-octahydrocyclopenta[c]pyrrol-2-yl]-1-(5-hydroxypyridin-2-yl)ethan-1-one] | 1.91 µM | 1 to 10 µM
5 | O=C(CN1C[C@H]2C[C@H](Cc3ccccc3)C[C@H]2C1)c1ccc(O)cc1 [Example 305, 2-[(3aR,5R,6aS)-5-benzyl-octahydrocyclopenta[c]pyrrol-2-yl]-1-(4-hydroxyphenyl)ethan-1-one] | 0.0535 µM | < 0.1 µM
6 | COc1cccc(-c2cccc(C(=O)CN3C[C@@H]4C[C@@](O)(Cc5ccccc5)C[C@@H]4C3)c2)c1 [Example 273, 2-((3aR,5r,6aS)-5-benzyl-5-hydroxyhexahydrocyclo-penta[c]pyrrol-2(1H)-yl)-1-(3′-methoxy-[1,1′-biphenyl]-3-yl)ethanone] | 10 µM | > 10 µM
7 | Cc1ccccc1[C@]1(O)C[C@H]2CN(c3ccccn3)C[C@H]2C1 [Example 82, 5-(2-methylphenyl)-2-(pyridin-2-yl)-octahydrocyclopenta[c] pyrrol-5-ol] | 10 µM | > 10 µM
8 | O=C(Nc1cccc(Cl)c1)N1C[C@@H]2C[C@@](O)(c3ccccc3)C[C@@H]2C1 [Example 4, N-(3-chlorophenyl)-5-hydroxy-5-phenyl-octahydrocyclopenta[c] pyrrole-2-carboxamide] | 10 µM | > 10 µM
9 | O=C(CN1C[C@@H]2C[C@@](O)(Cc3cccc(F)c3F)C[C@@H]2C1)c1ccc(O)cn1 [Example 247, 2-((3aR,5r,6aS)-5-(2,3-difluorobenzyl)-5-hydroxyhexahydrocyclo-penta[c]pyrrol-2(1H)-yl)-1-(5-hydroxypyridin-2-yl)ethanone] | 3.06 µM | 1 to 10 µM
10 | O=C(CN1C[C@@H]2C[C@@](O)(Cc3ccccc3)C[C@@H]2C1)c1cccc(-c2cccnc2)c1 [Example 272, 2-((3aR,5r,6aS)-5-benzyl-5-hydroxyhexahydrocyclo-penta[c]pyrrol-2(1H)-yl)-1-(3-(pyridin-3-yl)phenyl)ethanone] | 10 µM | > 10 µM
11 | O=C(CN1C[C@@H]2C[C@@](F)(Cc3ccccc3)C[C@@H]2C1)c1ccc(O)cc1 [Example 312] | 0.093 µM | < 0.1 µM
12 | O=C(CN1C[C@@H]2C[C@@](O)(CC3CC3)C[C@@H]2C1)c1ccc(O)cn1 [Example 207, 2-((3aR,5r,6aS)-5-(cyclopropylmethyl)-5-hydroxyhexahydrocyclo-penta[c]pyrrol-2(1H)-yl)-1-(5-hydroxypyridin-2-yl)ethanone] | 10 µM | > 10 µM
13 | Cc1ccc(NC(=O)N2C[C@@H]3C[C@@](O)(Cc4ccccc4)C[C@@H]3C2)c(C)c1 [Example 121, (3aR,5r,6aS)-5-benzyl-N-(2,4-dimethylphenyl)-5-hydroxyhexahydrocyclo-penta[c]pyrrole-2(1H)-carboxamide] | 10 µM | > 10 µM
14 | COc1cccc(-c2ccc(C(=O)CN3C[C@@H]4C[C@@](O)(Cc5ccccc5)C[C@@H]4C3)cc2)c1 [Example 265, 2-((3aR,5r,6aS)-5-benzyl-5-hydroxyhexahydrocyclo-penta[c]pyrrol-2(1H)-yl)-1-(3′-methoxy-[1,1′-biphenyl]-4-yl)ethanone] | 10 µM | > 10 µM
15 | O=C(CN1C[C@@H]2CC(O)(CCc3ccccc3)C[C@@H]2C1)c1ccc(-c2ccccc2)cc1 (some centres unmarked) [Example 269, 2-[5-hydroxy-5-(2-phenylethyl)-octahydrocyclopenta[c]pyrrol-2-yl]-1-(4-phenylphenyl)ethan-1-one] | 10 µM | > 10 µM
16 | COc1ccc(NC(=O)N2C[C@@H]3C[C@@](O)(c4ccc(C#N)cc4)C[C@@H]3C2)cc1 [Example 2, 5-(4-cyanophenyl)-5-hydroxy-N-(4-methoxyphenyl)-octahydrocyclopenta[c] pyrrole-2-carboxamide] | 10 µM | > 10 µM

Row | SMILES | IC50 [1] | IC50 [2]
17 | O=C(CN1C[C@@H]2C[C@@](O)(Cc3ccc(C(F)(F)F)cc3)C[C@@H]2C1)c1ccc(O)cn1 [Example 216, 2-[(3aR,5R,6aS)-5-hydroxy-5-{[4-(trifluoromethyl)phenyl]methyl}-octahydrocyclopenta[c]pyrrol-2-yl]-1-(5-hydroxypyridin-2-yl)ethan-1-one] | 0.803 µM | 0.1 to 1 µM
18 | Cc1cccc(-c2cccc(C(=O)CN3C[C@@H]4C[C@@](O)(Cc5ccccc5)C[C@@H]4C3)c2)c1 [Example 276, 2-((3aR,5r,6aS)-5-benzyl-5-hydroxyhexahydrocyclo-penta[c]pyrrol-2(1H)-yl)-1-(3′-methyl-[1,1′-biphenyl]-3yl)ethanone] | 10 µM | > 10 µM
19 | Oc1ccc([C@@H](O)CN2C[C@@H]3C[C@@](O)(Cc4ccccc4)C[C@@H]3C2)cc1 [Example 136, (3aR,5R,6aS)-5-benzyl-2-((R)-2-hydroxy-2-(4-hydroxyphenyl)ethyl)octa-hydrocyclopenta[c]pyrrol-5-ol] | 0.0237 µM | < 0.1 µM
20 | CC(C)(C)c1ccc([C@]2(O)C[C@H]3CN(C(=O)Nc4ccccc4)C[C@H]3C2)cc1 [Example 54] | 10 µM | > 10 µM
21 | COc1ccc(NC(=O)N2C[C@@H]3C[C@@](O)(c4ccccc4)C[C@@H]3C2)cc1 [Example 1, 5-hydroxy-N-(4-methoxyphenyl)-5-phenylhexahydrocyclopenta[c]pyrrole-2(1H)-carboxamide] | 10 µM | > 10 µM
22 | O=C(COc1ccc(C(=O)CN2C[C@@H]3C[C@@](O)(Cc4ccccc4)C[C@@H]3C2)cc1F)c1ccc(O)c(F)c1 [Example 172, 2-((3aR,5r,6aS)-5-benzyl-5-hydroxyhexahydrocyclo-penta[c]pyrrol-2(1H)-yl)-1-(3-fluoro-4-(2-(3-fluoro-4-hydroxyphenyl)-2-oxoethoxy)phenyl)ethanone] | 10 µM | > 10 µM
23 | Cc1ccccc1[C@]1(O)C[C@H]2CN(C(=O)Nc3ccc(Cl)c(C(F)(F)F)c3)C[C@H]2C1 [Example 24, N-[4-chloro-3-(trifluoromethyl)phenyl]-5-hydroxy-5-(2-methylphenyl)-octahydrocyclopenta[c] pyrrole-2-carboxamide] | 10 µM | > 10 µM
24 | O=C(CN1C[C@@H]2C[C@@](O)(Cc3ccc(F)cc3)C[C@@H]2C1)c1ccc(O)c(F)c1 [Example 169, 1-(3-fluoro-4-hydroxyphenyl)-2-((3aR,5r,6aS)-5-(4-fluorobenzyl)-5-hydroxyhexahydrocyclo-penta[c]pyrrol-2(1H)-yl)ethanone] | 0.117 µM | 0.1 to 1 µM
25 | CO[C@@]1(Cc2ccccc2)C[C@H]2CN(CC(=O)c3ccc(O)cc3)C[C@H]2C1 [Example 174, 2-((3aR,5r,6aS)-5-benzyl-5-methoxyhexahydrocyclo-penta[c]pyrrol-2(1H)-yl)-1-(4-hydroxyphenyl)ethanone] | 0.0572 µM | < 0.1 µM
26 | O=C(CN1CC2(C1)CC(O)(Cc1ccccc1)C2)c1ccc(O)cc1 [Example 342, 2-(6-benzyl-6-hydroxy-2-azspiro[3.3]heptan-2-yl)-1-(4-hydroxyphenyl)ethanone] | 2.67 µM | 1 to 10 µM
27 | O=C(CN1C[C@@H]2C[C@@](O)(Cc3ccc(F)cc3)C[C@@H]2C1)c1ccc(O)cn1 [Example 166, 2-((3aR,5r,6aS)-5-(4-fluorobenzyl)-5-hydroxyhexahydrocyclo-penta[c]pyrrol-2(1H)-yl)-1-(5-hydroxypyridin-2-yl)ethanone] | 6.4 µM | 1 to 10 µM
28 | O=C(Nc1ccccc1C(F)(F)F)N1C[C@@H]2C[C@@](O)(Cc3ccccc3)C[C@@H]2C1 [Example 127, (3aR,5r,6aS)-5-benzyl-5-hydroxy-N-(2-(trifluoromethyl)phenyl) hexahydrocyclopenta[c] pyrrole-2(1H)-carboxamide] | 10 µM | > 10 µM
29 | O=C(CN1C[C@H]2C[C@@H](c3ccccc3)C[C@H]2C1)c1ccc(O)cc1 [Example 114, 1-(4-hydroxyphenyl)-2-(5-phenylhexahydrocyclo-penta[c]pyrrol-2(1H)-yl)ethanone] | 0.232 µM | 0.1 to 1 µM
30 | O=C(Nc1cccc(C(F)(F)F)c1)N1C[C@@H]2C[C@@](O)(c3ccccc3)C[C@@H]2C1 [Example 5, 5-hydroxy-5-phenyl-N-[3-(trifluoromethyl)phenyl]-octahydrocyclopenta[c] pyrrole-2-carboxamide] | 10 µM | > 10 µM
31 | O=C(CN1C[C@@H]2C[C@@](O)(Cc3ccccc3F)C[C@@H]2C1)c1ccc(O)cn1 [Example 221, 2-(5-(2-fluorobenzyl)-5-hydroxyhexahydrocyclo-penta[c]pyrrol-2(1H)-yl)-1-(5-hydroxypyridin-2-yl)ethanone] | 0.998 µM | 0.1 to 1 µM
